Experimental data from patent US5643887A, “Daunomycin derivative with reduced cytotoxicity toward normal cells” (The Scripps Research Institute, priority 1995, dated 1997).

What was measured:
[1] = test system: mice; settings: i.v., Merck Index; cited from earlier work
[2] = LD50 in mice; settings: mouse, in vivo, ip, here found
Experimental: Daunomycin has a reported LD50 in mice of 20 mg/kg when administered intravenously (i.v.) and 5 mg/kg when administered intraperitoneally (i.p.) [Merck Index, 11th ed., Merck & Co., Inc., Rahway, N.J., page 445 (1989)].

[3] = test system: transformed, cancerous cell lines; assay: Cytotoxicity comparison with daunomycin, cancer cell lines; format: cell-based
Experimental: SULFORHODAMINE B CYTOTOXICITY ASSAY
(§1) IC50 values; i.e., the concentration of Compound required to kill one-half of the treated cells, were then calculated.
All other cells or cell lines were obtained from the American Type Culture Collection (ATCC) (all except CHO cells are human or mouse cancer cell lines as described by the ATCC).

[4] = test system: PBL (human peripheral blood lymphocytes); assay: Sulforhodamine B cytotoxicity assay, PBL; format: cell-based; settings: Lymphocyte, non-transformed, 72 hours
Experimental: (§2) 1. Preparation of target cells in 96-well plates
(§3) 2. Preparation of sample drugs and toxic control a. Stock drug solutions were prepared by dissolving drug in the appropriate solvent (determined during chemical characterization studies) and sterile filtering the drug-solvent solution through a sterile 0.2 μ filter unit. An aliquot was taken from each filtered drug solution and the O.D. was measured to determine the drug concentration. […]
(§4) b. Dilute the stock drug solution prepared above with T.C. medium to the desired initial concentration (10^-2 -10^-4 M). A minimum volume of 220 μL of diluted drug is required per 96-well plate used in the assay.
(§5) 3. Addition of Sample Compounds and Controls to 96-well Plates b. Add 100 μL of the initial .compound dilution to adjacent duplicate wells in Columns #2. (Four materials can be tested in duplicate per 96-well plate.) c. Remove 10 μL of diluted compound from the wells in Column #2 and transfer to the corresponding wells in Column #3. Mix by pipetting up and down gently approximately five times. d. Transfer 10 μL to the appropriate wells in Column #4 and continue to make […] dilutions of compound across the plate through Column #12. f. Incubate (37° C., 5-10 percent CO2 in humidified incubator) plates for a total of 72 hours. […]
as §1

[5] = test system: CHO cells; assay: Sulforhodamine B cytotoxicity assay, CHO; format: cell-based; settings: Cricetulus griseus, non-transformed, 72 hours
Experimental: as §2, §3, §4, §5
(§6) IC50 values; i.e., the concentration of Compound required to kill one-half of the treated cells, were then calculated. […]

[6] = test system: HMEC (human mammary epithelial cells); assay: Sulforhodamine B cytotoxicity assay, HMEC; format: cell-based; settings: non-transformed, 72 hours
Experimental: as §2, §3, §4, §5, §1

[7] = test system: SK-Mel-28 (melanoma); assay: Sulforhodamine B cytotoxicity assay, SK-Mel-28; format: cell-based; settings: Homo sapiens, transformed, 72 hours
Experimental: as §2, §3, §4, §5, §6

[8] = test system: Ovcar-3 (ovarian carcinoma); assay: Sulforhodamine B cytotoxicity assay, Ovcar-3; format: cell-based; settings: Homo sapiens, transformed, 72 hours
Experimental: as §2, §3, §4, §5, §6

[9] = test system: HL-60 (promyelocytic leukemia); assay: Sulforhodamine B cytotoxicity assay, HL-60; format: cell-based; settings: Homo sapiens, transformed, 72 hours
Experimental: as §2, §3, §4, §5, §6

[10] = test system: UCLA-P3 (lung carcinoma); assay: Sulforhodamine B cytotoxicity assay, UCLA-P3; format: cell-based; settings: Homo sapiens, UCLA P-3, transformed, 72 hours
Experimental: as §2, §3, §4, §5, §1

[11] = test system: NHDF (normal human dermal fibroblasts); assay: Sulforhodamine B cytotoxicity assay, NHDF; format: cell-based; settings: non-transformed, 72 hours
Experimental: as §2, §3, §4, §5, §1

[12] = test system: Copan-1 (pancreatic carcinoma); assay: Sulforhodamine B cytotoxicity assay, Copan-1; format: cell-based; settings: transformed, 72 hours
Experimental: as §2, §3, §4, §5, §6

[13] = test system: MOLT-4 (T cell leukemia); assay: Sulforhodamine B cytotoxicity assay, MOLT-4; format: cell-based; settings: Homo sapiens, transformed, 72 hours
Experimental: as §2, §3, §4, §5, §6

[14] = test system: HT-29 (colon carcinoma); assay: Sulforhodamine B cytotoxicity assay, HT-29; format: cell-based; settings: Homo sapiens, transformed, 72 hours
Experimental: as §2, §3, §4, §5, §6

[15] = test system: P-388 (mouse leukemia); assay: Sulforhodamine B cytotoxicity assay, P-388; format: cell-based; settings: P388, transformed, 72 hours
Experimental: as §2, §3, §4, §5, §6

[16] = test system: MCF-7 (breast carcinoma); assay: Sulforhodamine B cytotoxicity assay, MCF-7; format: cell-based; settings: Homo sapiens, MCF7, transformed, 72 hours
Experimental: as §2, §3, §4, §5, §6

[17] = test system: EMT-6 mammary tumor cells; assay: In vivo mouse study, EMT-6 mammary tumor
Experimental: FIG. 1 is a graph showing the average tumor size in 6-10 week old female Balb/c BYJ mice inoculated with EMT-6 mammary tumor cells. Control mice (open squares) were treated with normal saline on days 1, 5 and 9 after inoculation. Study mice (X's) were treated with an equal volume of normal saline containing 15 mg/kg of Compound I on those same days post inoculation with the tumor cells.
The data of FIG. 1 illustrate an in vivo study using Compound 1. Here, groups of 6-10 week old, female Balb/c BYJ mice (obtained from The Scripps Research Institute breeding colony, La Jolla, Calif.) (8 per group) were inoculated with 5×10^5 cells of the EMT6 tumor cell line, a mammary tumor. The mice were then treated with normal saline (control) or normal saline containing 15 mg/kg of Compound 1 (study) on days 1, 5 and 9 after the inoculation.
The average tumor volume was then calculated for each group of mice.

[18] = first four cancer cell lines (two leukemias and two carcinomas)

Structure (SMILES)	LD50 [2]	potency relative to daunomycin [3, 18]	IC50 [4]	IC50 [5]	IC50 [6]	IC50 [7]	IC50 [8]	IC50 [9]	IC50 [10]	IC50 [11]	IC50 [12]	IC50 [13]	IC50 [14]	IC50 [15]	IC50 [16]	also measured
COc1cccc2c1C(=O)c1c(O)c3c(c(O)c1C2=O)C[C@@](O)(C(C)=O)C[C@@H]3O[C@H]1C[C@H](N)[C@H](O)[C@H](C)O1 [Daunomycin]	~12 mg/kg	same potencies	780 nM	390 nM	390 nM	1600 nM	390 nM	< 98 nM	730 nM	190 nM	390 nM	1 nM	780 nM	390 nM	780 nM	LD50 [1]: 20 mg/kg
COc1cccc2c1C(=O)c1c(O)c3c(c(O)c1C2=O)C[C@@](O)(C(C)=O)C[C@@H]3O[C@H]1C[C@H](NC(=O)OCCS(=O)(=O)c2ccccc2)[C@H](O)[C@H](C)O1 [Compound 1, 8-Acetyl-10-[[3-[N-[2-(phenylsulfonyl)-ethoxycarbonyl]]amino-2,4,6-trideoxy-1-lyxo-hexapyranosyl]oxy]-7,8,9,10-tetrahydro-6,8,11-trihydroxy-1-methoxy-5,12-naphthacenedione]	~35 mg/kg	same potencies	25000 nM	6300 nM	13000 nM	3100 nM	1600 nM	98 nM	3100 nM	13000 nM	780 nM	1 nM	780 nM	780 nM	780 nM	tumor burden of treated mice vs control ([17]; 15 mg/kg on days 1, 5 and 9, between days 14 and 16): about one-third the tumor burden of the control group; average tumor volume vs control ([17]; 15 mg/kg on days 1, 5 and 9, by day 8 post inoculation): slight difference in the average volume of the tumors, with the study group having a lower tumor burden; control group's average tumor volume relative to study group ([17]; 15 mg/kg on days 1, 5 and 9, by day 20 post inoculation): about twice that of the study group; growth of mammary tumors ([17]; EMT-6 implanted in mice): retarded the growth of mammary tumors; cancer cell cytotoxicity difference between Compound 1 and daunomycin ([3]; cancer cells): no difference to a four-fold difference; potency relative to daunomycin ([3]; final two carcinoma cell lines): about one-fourth the potency of daunomycin; potency relative to daunomycin ([3]; second three cancer cell lines (melanoma, pancreatic carcinoma and mouse leukemia)): about one-half the potency of daunomycin
